According to PMC5084075 (ACS Central Science, 2016):
Like-named read-outs stand apart in the source and are kept apart here.

Experiments:
[1] = tested on: Plasmodium falciparum Pfal (strain not named in column head); assay: microbe, parasite or virus in culture; parameters: species or system P. falciparum blood stage culture; whole-cell asexual blood stage P. falciparum growth inhibition
Description: (§1) To confirm the promise of the two starting points OSM-S-5 and -6, they were evaluated against 3D7 (drug-sensitive) and K1 (chloroquine resistant) strains of Plasmodium falciparum in a whole cell assay and against HEK-293 cells as a cytotoxicity marker (Table SB1, Biological Protocols; tables with the prefix “SB” may be found in the Supporting Information). Biological data may be browsed in a static data set taken as a snapshot for this paper (Data Sets S1 (Excel), S2 (SDF)), online in a database constructed through periodic batch uploads,[68] or in a “living database” to which may be added future data;[69] the latter may be visualized in a web browser[70] using an open source system that was recently deployed in the Wikipedia Chemical Structure Explorer,[71] or the data may be downloaded and visualized offline with proprietary (Figure S4)[72] or open source (Figure S5)[73] tools). The evaluation was performed in three different institutions using different assays and widely employed controls; controls are important to assess reproducibility and interassay variability[74] but also to minimize possible bias in evaluating compounds where there are pre-existing data from other researchers already in the public domain (Figure S6).[75]

[2] = tested on: T1, Plasmodium falciparum K1 (chloroquine resistant); assay: microbe, parasite or virus in culture; parameters: species or system P. falciparum blood stage culture; whole-cell asexual blood stage P. falciparum growth inhibition
T1 construct: K1
Description: as §1

PfDHODH = biological target: T2, PfDHODH (Plasmodium falciparum, UniProt Q08210); assay: biochemical; parameters: PfDHODH enzyme inhibition IC50; details: read-out: DHODH
T2 sequence (Q08210 1-569): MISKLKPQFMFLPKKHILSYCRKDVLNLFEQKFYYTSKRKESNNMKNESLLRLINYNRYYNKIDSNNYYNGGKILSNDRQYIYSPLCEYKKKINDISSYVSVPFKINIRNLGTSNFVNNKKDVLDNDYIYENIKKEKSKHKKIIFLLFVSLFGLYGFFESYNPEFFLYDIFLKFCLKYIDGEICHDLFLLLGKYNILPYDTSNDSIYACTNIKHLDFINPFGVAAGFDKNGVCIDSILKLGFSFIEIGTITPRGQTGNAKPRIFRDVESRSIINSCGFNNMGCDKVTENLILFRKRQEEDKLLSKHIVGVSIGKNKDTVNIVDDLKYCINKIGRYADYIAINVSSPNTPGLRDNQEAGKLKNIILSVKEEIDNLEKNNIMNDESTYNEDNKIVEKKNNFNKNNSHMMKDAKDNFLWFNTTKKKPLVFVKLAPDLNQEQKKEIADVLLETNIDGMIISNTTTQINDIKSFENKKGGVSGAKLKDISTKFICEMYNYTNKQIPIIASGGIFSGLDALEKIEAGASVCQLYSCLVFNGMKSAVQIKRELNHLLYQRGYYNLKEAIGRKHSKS
Text: The potency of the near neighbor set led to an in silico target prediction study being performed on OSM-S-39 (Text S11). The method employed a naive Bayes statistical model identifying molecular structural features of small molecules with protein targets, using the ChEMBL database. Similar statistical approaches based on known activities of compounds have been successfully applied to identify targets of antitubercular compounds.[112]−[114] A total of 1,287 proteins were included for which at least 50 active compounds were known with activities <10 μM, with the other compounds in the database comprising the inactives. After the OSM compounds were scored against each target, the scores obtained were standardized by comparison with scores obtained through comparison with a random set of >10K compounds. The prediction list was culled for proteins relevant to malaria (3D7 proteome), and the analysis gave as the most likely candidate targets, in order of significance, carboxy-terminal domain RNA polymerase II polypeptide A small phosphatase 1 (Q8I3U9), dihydroorotate dehydrogenase (DHODH, Q08210), SUMO-activating enzyme subunit 2 (Q8I553) and 1 (Q8IHS2), and cyclin-dependent kinase 1 (P61075). […] A line of inquiry remaining open is the equivalent assays against the other targets identified in the in silico prediction.

[3] = tested on: T3, Plasmodium falciparum 3D7; assay: microbe, parasite or virus in culture; parameters: species or system P. falciparum blood stage culture; whole-cell asexual blood stage P. falciparum growth inhibition; details: Avery assay, read-out: 3D7 / IC50nM
T3 construct: 3D7
Description: as §1

HEK293 = assay: cells; parameters: cytotoxicity counter-screen on HEK293 cells; details: Homo sapiens, cytotoxicity
Description: as §1

[4] = tested on: T4, Plasmodium falciparum Pfal (K1); assay: microbe, parasite or virus in culture; parameters: species or system erythrocytes; P. falciparum asexual blood-stage whole-cell growth inhibition, IC50; details: K1, Erythrocyte
T4 construct: K1
Description: as §1

[5] = tested on: T5, Plasmodium falciparum Pfal (3D7); assay: microbe, parasite or virus in culture; parameters: species or system erythrocytes; P. falciparum asexual blood-stage whole-cell growth inhibition, IC50; details: 3D7, Erythrocyte, lab named in column head
T5 construct: 3D7
Description: as §1

in vitro [6] = assay: in vitro; parameters: metabolic stability in human liver microsomes, LC-MS, NADPH, 0.4 mg/mL protein; details: liver microsomes, human liver microsomes; for microsomal CLint: read-out: CLint HLM (Monash); for half-life: read-out: t1/2 HLM (Monash)
Description: (§2) The two original GSK hits (OSM-S-5 and -6) and six NN compounds were evaluated for their kinetic solubility in phosphate buffer and their metabolic stability in human liver microsomes (Table SB5, Data Sets S20 and S21).

in vitro [7] = assay: in vitro; parameters: microsomal stability with NADPH, LC-MS, half-life and CLint; details: human, liver microsomes, HLM; for microsomal CLint: read-out: CLint HLM (Monash); for half-life: read-out: t1/2 HLM (Monash)
Description: as §2

[8] = Avery assay, read-out: K1 / IC50nM
[9] = Guy assay, read-out: Pfal (K1) IC50 (Guy)
[10] = lab named in column head, read-out: Pfal (K1) IC50 (Guy)

O=C(COCc1cn(-c2ccc(F)cc2)nn1)OCc1cn(-c2ccc(F)cc2)nn1 [OSM-E-7]
IC50 ([1]; Dundee assay): > 50 µM

Cc1cc(/C=C2\S/C(=N\c3ccccc3)N(c3ccccc3)C2=O)c(C)n1-c1cccc(F)c1 [OSM-L-1]
IC50 ([2]; Batra assay, read-out: Pfal (K1) IC50 (Batra)): > 5000 nM
IC50 ([1]; Batra assay): 3.2 µM

Cc1c(NC(=O)CNC(=O)c2ccccc2)c(=O)n(-c2ccccc2)n1C [OSM-S-16]
IC50 (PfDHODH): > 50 µM

NC(=O)COCc1cn(-c2ccc(F)cc2)nn1 [OSM-E-8]
IC50 ([1]; Dundee assay): > 50 µM

Cc1cc(/C=C2\SC(N(CC#N)c3ccccc3)=NC2=O)c(C)n1-c1ccc(C(F)(F)F)cc1 [OSM-S-43]
IC50 (PfDHODH): > 50 µM

CC(=O)N(C1=NC(=O)/C(=C/c2cc(C)n(-c3ccc(C)cc3)c2C)S1)c1ccccc1 [OSM-S-50]
IC50 (PfDHODH): > 50 µM

COc1cc(C)c2c(Oc3cccc(C(F)(F)F)c3)c(OC)cc(NC(C)CCCN)c2n1 (centres unmarked) [Tafenoquine]
IC50 [2, 8]: 451 nM
IC50 [3]: 451 nM

Cc1cc(C(=O)O)c(C)n1-c1ccc(F)cc1 [OSM-S-4]
IC50 (PfDHODH): > 50 µM

Cc1cc(C(=O)N(C(=O)NC2CCCCC2)C2CCCCC2)c(C)n1-c1ccc(F)cc1 [OSM-S-7]
IC50 (PfDHODH): > 50 µM

Cc1cc(/C=C2\S/C(=N\c3ccccc3)NC2=O)c(C)[nH]1 [OSM-S-108]
inhibition at 40 µM (HEK293): 44%

CC(=O)N(C1=NC(=O)/C(=C/c2cc(C)n(-c3ccc(C(F)(F)F)cc3)c2C)S1)c1ccccc1 [OSM-S-45]
IC50 (PfDHODH): > 50 µM

Cc1cc(/C=C2\S/C(=N\c3ccccc3)N(CC#N)C2=O)c(C)n1-c1ccc(C(F)(F)F)cc1 [OSM-S-42]
IC50 (PfDHODH): > 50 µM

CCOC(=O)COCc1cn(-c2ccc(F)cc2)nn1 [OSM-E-5]
IC50 ([1]; Dundee assay): > 50 µM

Cc1cc(/C=C2\S/C(=N\c3ccccc3)NC2=O)c(C)n1-c1ccc(C#N)cc1 [OSM-A-2]
IC50 [2, 9]: 1830 nM
IC50 ([1]; Guy assay): 0.574 µM

Cc1cc(C(=O)OCC(=O)Nc2c(C)n(C)n(-c3ccccc3)c2=O)c(C)n1-c1ccc(F)cc1 [OSM-S-6]
IC50 (PfDHODH): > 50 µM

COc1cccc(-n2c(C)cc(/C=C3\S/C(=N\c4ccccc4)NC3=O)c2C)c1 [OSM-A-3]
IC50 [2, 9]: 140 nM
IC50 ([1]; Guy assay): 0.098 µM

Cc1c(S(=O)(=O)N(C)CC(N)=O)c(S(=O)(=O)N(C)CC(N)=O)c(C)n1-c1ccc(F)cc1 [OSM-E-3]
IC50 ([1]; Dundee assay): > 50 µM

CCOC(=O)c1ccc(-n2c(C)cc(/C=C3\S/C(=N/c4ccccc4)NC3=O)c2C)cc1 [OSM-S-48]
IC50 (PfDHODH): > 50 µM

Cc1cc(/C=C2\SC(=Nc3ccccc3)N(c3ccccc3)C2=O)c(C)n1-c1cccc(F)c1 [OSM-L-1]
IC50 ([4]; lab named in column head, read-out: Pfal (K1) IC50 (Batra)): > 5000 nM
IC50 ([5]; read-out: Pfal IC50 (Batra)): 3.2 µM

Cc1cc(/C=C2\S/C(=N\c3cccc(O)c3)NC2=O)c(C)n1-c1ccc([N+](=O)[O-])cc1 [OSM-S-110]
inhibition at 40 µM (HEK293): 26%

CC(=O)N(C1=NC(=O)/C(=C/c2cc(C)n(-c3ccccc3)c2C)S1)c1ccccc1 [OSM-S-49]
IC50 (PfDHODH): > 50 µM

Cc1cc(C=O)c(C)n1-c1ccc(F)cc1 [OSM-S-2]
IC50 (PfDHODH): > 50 µM

Cc1cc(/C=C2\S/C(=N\c3ccccc3)N(C3CCCC3)C2=O)c(C)n1-c1ccc(C(F)(F)F)cc1 [OSM-S-54]
IC50 (PfDHODH): > 50 µM

O=C1N=C(Nc2ccccc2)S/C1=C\c1ccccc1 [OSM-S-55]
IC50 (PfDHODH): > 50 µM

C[C@@H]1CC[C@H]2[C@@H](C)C(=O)O[C@@H]3O[C@@]4(C)CC[C@@H]1[C@]32OO4 [Artemisinin]
IC50 [3]: 6 nM
IC50 ([4]; read-out: K1 / IC50nM): 0.61 nM

Cc1cc(C(=O)Nc2c(C)n(C)n(-c3ccccc3)c2=O)c(C)n1-c1ccc(F)cc1 [OSM-S-8]
IC50 (PfDHODH): > 50 µM

Cc1cc(S(=O)(=O)NCC(N)=O)c(C)n1-c1ccc(F)cc1 [OSM-E-2]
IC50 ([1]; Dundee assay): > 50 µM

Cc1ccc(-n2c(C)cc(/C=C3\SC(=Nc4ccccc4)NC3=O)c2C)cc1 [OSM-S-37]
IC50 (PfDHODH): > 50 µM
microsomal CLint (in vitro [6]): 7 µL/min/mg
half-life (in vitro [6]): 4.08 h
IC50 [2, 9]: 176 nM
IC50 ([1]; Guy assay): 0.161 µM
IC50 [4, 10]: 176 nM
IC50 ([5]; read-out: Pfal IC50 (Guy)): 0.161 µM
microsomal CLint (in vitro [7]): 7 µL/min/mg
half-life (in vitro [7]): 4.08 h

Cc1cc(C(=O)NCC(N)=O)c(C)n1-c1ccc(F)cc1 [OSM-S-19]
IC50 (PfDHODH): > 50 µM

Cc1cc(/C=C2\S/C(=N\c3cccc(O)c3)NC2=O)c(C)n1-c1ccccc1 [OSM-S-114]
inhibition at 40 µM (HEK293): 42%

Cc1cc(/C=C2\S/C(=N\c3ccccc3)NC2=O)c(C)n1-c1ccc(I)cc1 [OSM-A-4]
IC50 [2, 9]: 3160 nM
IC50 ([1]; Guy assay): 1.75 µM

Cc1cc(/C=C2\S/C(=N\c3ccccc3)N(c3ccccc3)C2=O)c(C)n1-c1ccc(C(F)(F)F)cc1 [OSM-S-52]
IC50 (PfDHODH): > 50 µM

Cc1cc(S(=O)(=O)N(C)CC(N)=O)c(C)n1-c1ccc(F)cc1 [OSM-E-1]
IC50 ([1]; Dundee assay): > 50 µM

Cc1cc(/C=C2\S/C(=N\c3ccc(O)cc3)NC2=O)c(C)n1-c1ccccc1 [OSM-S-115]
inhibition at 40 µM (HEK293): 35%

Cc1cc(C(=O)NCC(=O)Nc2c(C)n(C)n(-c3ccccc3)c2=O)c(C)n1-c1ccc(F)cc1 [OSM-S-21]
IC50 (PfDHODH): > 50 µM

CCN(CC)CCCC(C)Nc1ccnc2cc(Cl)ccc12 (centres unmarked) [Chloroquine]
IC50 [2, 8]: 266 nM
IC50 [3]: 18.7 nM

Cc1cc(/C=C2\S/C(=N\c3ccccc3)NC2=O)c(C)n1-c1ccc(F)cc1 [OSM-S-10]
microsomal CLint (in vitro [6]): 17 µL/min/mg
half-life (in vitro [6]): 1.72 h
microsomal CLint (in vitro [7]): 17 µL/min/mg
half-life (in vitro [7]): 1.72 h

COC(=O)COCc1cn(-c2ccc(F)cc2)nn1 [OSM-E-6]
IC50 ([1]; Dundee assay): > 50 µM

COc1ccc(-n2c(C)cc(/C=C3\S/C(=N\c4cccc(O)c4)NC3=O)c2C)cc1 [OSM-S-112]
inhibition at 40 µM (HEK293): 38%

Cc1cc(/C=C2\S/C(=N\c3ccccc3)NC2=O)c(C)n1-c1ccccn1 [OSM-S-51]
IC50 (PfDHODH): > 50 µM

CCOC(=O)c1cc(C)n(-c2ccc(F)cc2)c1C [OSM-S-3]
IC50 (PfDHODH): > 50 µM

Cc1cc(/C=C2\SC(=Nc3ccccc3)NC2=O)c(C)n1-c1ccc(S(N)(=O)=O)cc1 [OSM-A-1]
IC50 [2, 9]: 4380 nM
IC50 ([1]; Guy assay): 3.05 µM
IC50 [4, 10]: 4380 nM
IC50 ([5]; read-out: Pfal IC50 (Guy)): 3.05 µM

O=C(CBr)OCc1cn(-c2ccc(F)cc2)nn1 [OSM-E-4]
IC50 ([1]; Dundee assay): > 50 µM
